From patent US20240239801A1, “PYRIMIDO[5,4,D]PYRIMIDINE COMPOUNDS, COMPOSITIONS COMPRISING THEM AND USES THEREOF” (Université de Montréal, priority 2021, published 2024)
Read-outs that look alike come from different tables or passages of the source.

How the values were obtained:
[1] = test system: SW480 pERK; test: Phospho-ERK inhibition, AlphaLISA SureFire Ultra p-ERK 1/2; assay type: cell-based, human; settings: for SW480 (Ymin %): lowest value of the pERK IC50 curve
Procedure: (§1) All cancer cell lines (A375, A101D, A2058, RKO, HT29 SK-MEL 30, IPC298, HepG2, HCT-116, Lovo, SW620, SW480, NCI-H358, NCI-H2122, Calu-6, NCIH2087, NCIH1755, NCIH1666 and Mewo) were obtained from ATCC and cultured in RPMI-1640 medium (Gibco) supplemented with 5% heat inactivated fetal bovine serum (FBS, Wisent) at 37° C. under 5% CO2. Cells were maintained in T175 flasks (Greiner). They were passaged by removing the culture medium, washing once in 10 mL of room temperature Phosphate Buffered Saline (PBS; Wisent) and incubating at 37° C. with 2 mL of 0.05% Trypsin (Thermo-Fisher). Trypsin was then inactivated by adding complete growth medium and the cells were then replated in a T175 culture dish at the appropriate dilution. All cell lines were routinely tested for mycoplasma contamination. Tissue type and mutational status of each cell line can be found in Table B.
(§2) AlphaLISA® SureFire® Ultra™ p-ERK ½ (Thr202/Tyr204) analysis was conducted on cells plated in 100 μL of complete RPMI-1640 growth medium in 96-well flat-bottomed transparent dishes (Costar) at a density indicated in Table C. Cells were maintained overnight at 37° C. under 5% CO2 before treatment with compounds' dilution series for one hour. The cell density in cells/cm^2 corresponds to cell number divided by the area of one well of a 96-well plate ([…]).
(§3) In a dilution series 100 μL/well of test substance dilution prepared in complete RPMI-1640 growth media was added to the cells. The dilution series is selected so that ten concentrations cover a range from 30 μM or 10 μM to 0.33 nM. If necessary, the initial concentration of 10 μM is increased to 100 μM or lowered to 1 μM (as in the case of A375 and NCIH1666 cells, which are generally more sensitive to the compounds) and further dilution is carried out accordingly. The final concentration of DMSO in the assay is set at 0.5%.
(§4) After treatment, media was removed, and cells were lysed in 50 μL of 1× AlphaScreen Ultra Lysis Buffer (Perkin Elmer). The AlphaLISA® SureFire® Ultra™ p-ERK ½ (Thr202/Tyr2O4) (PerkinElmer) reactions were performed with 5 μL of cell lysate according to the manufacturer's specifications in 384-well proxyplates (Perkin Elmer) followed by overnight incubation of the reactions at room temperature in a humidified chamber. After completion of the reactions, the signals were recorded on an EnVision plate reader (Perkin Elmer) using built in AlphaLISA® settings.
(§5) The effect of each compound dilution on the pERK signal was expressed in % inhibition and calculated as follows. An internal 100% inhibition control (1 μM trametinib, cat. No. HY-10999; MedChem Express; CAS No. 871700-17-3) was included in each plate and used as a measure of pERK background. First, the value obtained for trametinib was subtracted from each data point. The average of DMSO (vehicle) controls (set as 0% inhibition) was established and used to calculate % inhibition:
(§6) The ability of each compound to inhibit pERK signal was expressed as an IC50 value obtained by plotting the inhibition values for each data point of a dilution series and fitting the obtained curves using a log(agonist) versus response−variable slope (four parameters) function using GraphPadPrism (V7.0).
(§7) When present, paradoxical pERK induction is inferred from the negative % inhibition values observed in the pERK IC50 curves of a compound.

[2] = test system: HCT116 pERK; test: as above; assay type: cell-based, human; settings: for HCT116 (Ymin %): lowest value of the pERK IC50 curve
Procedure: as §1, §2, §3, §4, §5, §6, §7

[3] = Table 3, 1 h treatment, read-out: SW480 PERK IC50
[4] = Table 2, 1 h treatment, read-out: SW480 PERK IC50 (UM)
[5] = Table 4, 1 h treatment, read-out: SW480 PERK IC50

| Compound | IC50 [1, 3] [µM] | SW480 (Ymin %) ([1]; Table 3) [%] | IC50 ([2]; Table 3, 1 h treatment) [µM] | HCT116 (Ymin %) ([2]; Table 3) [%] | other results |
| --- | --- | --- | --- | --- | --- |
| CC1CCN(S(=O)(=O)Nc2ccc(F)c(Nc3ncnc4cnc(-n5cnc6ccccc65)nc34)c2F)C1 (stereo not drawn) [Example 73] | 1 to 10 | 7 | 1 to 10 | −2 |  |
| CSc1ncc2ncnc(Nc3c(F)ccc(NS(=O)(=O)c4ccc(F)cc4C#N)c3F)c2n1 [Example 10] |  |  |  |  | IC50 [1, 4]: 1 to 10 µM; SW480 (Ymin %) ([1]; Table 2): −9%; IC50 ([2]; Table 2, 1 h treatment): 10 to 30 µM; HCT116 (Ymin %) ([2]; Table 2): 9% |
| CO[C@@H]1CCN(S(=O)(=O)Nc2ccc(F)c(Nc3ncnc4cnc(-n5nnc6ccccc65)nc34)c2F)C1 [Example 72] | 1 to 10 | 1 | 1 to 10 | 20 |  |
| CO[C@@H]1CCN(S(=O)(=O)Nc2ccc(F)c(Nc3ncnc4cnc(N5CC[C@H](F)C5)nc34)c2F)C1 [Example 60] | 1 to 10 | 15 | 1 to 10 | 9 |  |
| CO[C@@H]1CCN(S(=O)(=O)Nc2ccc(F)c(Nc3ncnc4cnc(-n5ccc6ccccc65)nc34)c2F)C1 [Example 68] | 1 to 10 | 0 | 1 to 10 | 17 |  |
| COc1ccc(S(=O)(=O)Nc2ccc(F)c(Nc3ncnc4cnc(N5CC(F)(F)C5)nc34)c2F)cc1 [Example 48] | 1 to 10 | 6 | 1 to 10 | 13 |  |
| Cc1ncn(-c2ncc3ncnc(Nc4c(F)ccc(NS(=O)(=O)c5ccccc5C#N)c4F)c3n2)c1C [Example 34] | 1 to 10 | −2.0 | 10 to 30 | −3 |  |
| O=S(=O)(Nc1ccc(F)c(Nc2ncnc3cnc(N4CC[C@H](F)C4)nc23)c1F)c1ccc(Cl)cc1Cl [Example 61] | 1 to 10 | 9 | 1 to 10 | 11 |  |
| COc1ccc(S(=O)(=O)Nc2ccc(F)c(Nc3ncnc4cnc(SC)nc34)c2Cl)cc1 [Example 89] |  |  |  |  | IC50 ([1]; SW480 cells, pERK, read-out: SW480 PERK IC50): 10 to 30 µM; SW480 pERK % Ymin (lowest value of the IC50 curve) ([1]; SW480 cells, value in brackets, Ymin above −20% = minimal or no paradoxical induction): 3.5%; IC50 ([2]; HCT116 cells, pERK): 10 to 30 µM; HCT116 pERK % Ymin (lowest value of the IC50 curve) ([2]; HCT116 cells, value in brackets, Ymin above −20% = minimal or no paradoxical induction): −5% |
| COc1ccc(S(=O)(=O)Nc2ccc(F)c(Nc3ncnc4cnc(-n5cnc6c(N)cccc65)nc34)c2F)c(F)c1 [Example 79] | < 0.5 | −2 | 0.5 to 1 | −6 |  |
| COc1ccc(S(=O)(=O)Nc2ccc(F)c(Nc3ncnc4c(N)nc(-n5cnc(C)c5C)nc34)c2F)c(C)c1 [Example 86] |  |  |  |  | IC50 [1, 5]: 1 to 10 µM; SW480 (Ymin %) ([1]; Table 4): 3%; IC50 ([2]; Table 4, 1 h treatment): 1 to 10 µM; HCT116 (Ymin %) ([2]; Table 4): 8% |
| CSc1ncc2ncnc(Nc3c(F)ccc(NS(=O)(=O)c4ccc(Br)cc4C)c3F)c2n1 [Example 17] |  |  |  |  | IC50 [1, 4]: 1 to 10 µM; SW480 (Ymin %) ([1]; Table 2): 3%; IC50 ([2]; Table 2, 1 h treatment): 10 to 30 µM; HCT116 (Ymin %) ([2]; Table 2): 5% |
| COc1ccc(S(=O)(=O)Nc2ccc(F)c(Nc3ncnc4cnc(-n5cnc(C)c5)nc34)c2F)cc1OC [Example 30] | 10 to 30 | −5 | 1 to 10 | −6 |  |
| COc1ccc(S(=O)(=O)Nc2ccc(F)c(Nc3ncnc4cnc(N5CC[C@H](F)C5)nc34)c2F)cc1 [Example 31] | 1 to 10 | 11 | 1 to 10 | 13 |  |
| COc1ccc(S(=O)(=O)Nc2ccc(F)c(Nc3ncnc4cnc(N5CC[C@H](F)C5)nc34)c2F)c(F)c1 [Example 44] | 1 to 10 | 12 | 1 to 10 | −2 |  |
| CO[C@@H]1CCN(S(=O)(=O)Nc2ccc(F)c(Nc3ncnc4cnc(-n5cnc6ccccc65)nc34)c2F)C1 [Example 59] | 0.5 to 1 | 2 | 0.5 to 1 | 11 |  |
| COc1ccc(S(=O)(=O)Nc2ccc(F)c(Nc3ncnc4c(N)nc(-n5cnc(C)c5C)nc34)c2F)cc1 [Example 85] |  |  |  |  | IC50 [1, 5]: 1 to 10 µM; SW480 (Ymin %) ([1]; Table 4): 4%; IC50 ([2]; Table 4, 1 h treatment): 10 to 30 µM; HCT116 (Ymin %) ([2]; Table 4): 8% |
| COc1ccc(S(=O)(=O)Nc2ccc(F)c(Nc3ncnc4cnc(-n5ccnc5C)nc34)c2F)cc1 [Example 32] | 1 to 10 | 8 | 10 to 30 | 1 |  |
| COc1ccc(S(=O)(=O)Nc2ccc(F)c(Nc3ncnc4cnc(-n5cnc6ccccc65)nc34)c2F)c(C)c1 [Example 55] | 1 to 10 | −2 | 1 to 10 | −4 |  |
| CSc1ncc2ncnc(Nc3c(F)ccc(NS(=O)(=O)c4ccccc4Cl)c3F)c2n1 [Example 21] |  |  |  |  | IC50 [1, 4]: 1 to 10 µM; SW480 (Ymin %) ([1]; Table 2): 9%; IC50 ([2]; Table 2, 1 h treatment): 1 to 10 µM; HCT116 (Ymin %) ([2]; Table 2): 2% |
| N#Cc1ccccc1S(=O)(=O)Nc1ccc(F)c(Nc2ncnc3cnc(N4CC[C@H](F)C4)nc23)c1F [Example 33] | 1 to 10 | 13 | 10 to 30 | −4 |  |
| O=S(=O)(Nc1ccc(F)c(Nc2ncnc3cnc(-n4cnc5ccccc54)nc23)c1F)N1CCCC1 [Example 77] | 1 to 10 | −4 | 1 to 10 | −4 |  |
| COc1ccc(S(=O)(=O)Nc2ccc(F)c(Nc3ncnc4cnc(N5CC(F)(F)C5)nc34)c2F)c(F)c1 [Example 50] | 1 to 10 | −9 | 1 to 10 | 8 |  |
| COc1ccc(S(=O)(=O)Nc2ccc(F)c(Nc3ncnc4cnc(N5CCC(O)C5)nc34)c2F)cc1 (stereo not drawn) [Example 41] | 10 to 30 | 6 | 10 to 30 | 13 |  |
| COc1ccc(S(=O)(=O)Nc2ccc(F)c(Nc3ncnc4cnc(N5CCC(F)(F)C5)nc34)c2F)cc1 [Example 39] | 10 to 30 | −3 | 10 to 30 | 5 |  |
| CSc1ncc2ncnc(Nc3c(F)ccc(NS(=O)(=O)N4CCC(F)(F)C4)c3F)c2n1 [Example 27] |  |  |  |  | IC50 ([2]; Table 2, 1 h treatment): 10 to 30 µM; HCT116 (Ymin %) ([2]; Table 2): −6% |
